According to ChEMBL document CHEMBL1201862, “PubChem BioAssay data set” (2004):
The source made the active and inactive calls.

Assays:
[1] = cytotoxicity toward NIH3T3 fibroblasts, dose response, counter-screen, cell-based, ATP luminescence, mouse fibroblasts (AID 2010); type: functional;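 also: cells exposed to compound for about 90 hours before reading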
[2] = inhibitors of intracellular T. cruzi replication, confirmation, NIH3T3 host cells, beta-gal luminescence (AID 2044); type: functional, cell-based;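 also: intracellular parasites grown in NIH/3T3 mouse fibroblasts as host cells; luminescent beta-galactosidase reporter signal from transgenic T. cruzi replicating inside host cells; inhibitors lower the luminescence signal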
[3] = biological target: Neuropeptide Y receptor type 1 (Homo sapiens, UniProt P25929); type: functional;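 also: HEK293 cells with a CNG channel challenged with NPY then isoproterenol; potency as antagonist that reverses NPY suppression of cAMP signal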
[4] = biological target: Neuropeptide Y receptor type 2 (Homo sapiens, UniProt P49146); type: functional, cell-based;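 also: HEK293 cells expressing the receptor and a CNG channel; stimulus was NPY near EC95 followed by isoproterenol to raise cAMP; antagonist potency measured as restoring cAMP signal that NPY suppresses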
NADPH oxidase 1 = NADPH oxidase 1 (Homo sapiens, UniProt Q9Y5S8); type: functional, cell-based;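 also: Cell-based assay with luminescence read-out, IC50 derived from inhibitor dose-response curves; intracellular ROS from endogenous NOX1 in intact HT29 colon cancer cells; potency of inhibitors that lower the ROS luminescence signal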
[5] = biological target: Calpain-2 catalytic subunit (Sus scrofa, UniProt P43367); experiment: pig calpain II inhibitor potency, dose response, biochemical, fluorogenic peptide substrate (AID 1420); type: functional
Vasopressin V1a receptor = Vasopressin V1a receptor (Homo sapiens, UniProt P37288); experiment: Fluorescence-based cell-based high throughput dose response screening assay for agonists of the vasopressin 1 receptor (V1R).; type: functional
Oxytocin receptor = Oxytocin receptor (Homo sapiens, UniProt P30559); experiment: Counterscreen for vasopressin 1 receptor (V1R) agonists: Fluorescence-based cell-based high throughput dose response assay for agonists of the Oxytocin Receptor (OXTR). [Related pubchem assays: 2435 (Primary screen (OXTR agonists in singlicate)), 434964 (Confirmation screen (V1R agonists in triplicate)), 434969 (Counterscreen (OXTR agonists in …; type: functional
[6] = biological target: T1, Bifunctional protein GlmU (Mycobacterium tuberculosis, UniProt P9WMN3); experiment: Inhibitors of Mycobacterial Glucosamine-1-phosphate acetyl transferase (GlmU). Secondary screen.; set-up: species or system Mycobacterium tuberculosis H37Rv
T1 sequence (P9WMN3 whole entry): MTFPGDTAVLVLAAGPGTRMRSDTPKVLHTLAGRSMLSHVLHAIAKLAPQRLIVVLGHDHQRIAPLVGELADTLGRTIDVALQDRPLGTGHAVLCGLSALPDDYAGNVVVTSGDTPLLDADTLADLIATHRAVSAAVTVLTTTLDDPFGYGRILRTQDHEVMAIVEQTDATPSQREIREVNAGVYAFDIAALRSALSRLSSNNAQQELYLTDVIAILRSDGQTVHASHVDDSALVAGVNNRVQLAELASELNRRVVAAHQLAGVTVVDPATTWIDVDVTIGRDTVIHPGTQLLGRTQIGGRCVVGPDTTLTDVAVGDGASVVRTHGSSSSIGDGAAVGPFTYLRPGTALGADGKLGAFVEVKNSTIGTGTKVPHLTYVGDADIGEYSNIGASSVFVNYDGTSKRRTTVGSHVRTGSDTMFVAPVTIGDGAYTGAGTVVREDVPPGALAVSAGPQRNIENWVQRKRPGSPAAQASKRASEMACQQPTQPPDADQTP

[7] = biological target: T2, Zinc finger protein mex-5 (Caenorhabditis elegans, UniProt Q9XUB2); experiment: MEX-5/TCR-2 RNA interaction inhibitors, dose response, biochemical, C. elegans, fluorescence polarization (AID 1960)
T2 sequence (Q9XUB2 whole entry): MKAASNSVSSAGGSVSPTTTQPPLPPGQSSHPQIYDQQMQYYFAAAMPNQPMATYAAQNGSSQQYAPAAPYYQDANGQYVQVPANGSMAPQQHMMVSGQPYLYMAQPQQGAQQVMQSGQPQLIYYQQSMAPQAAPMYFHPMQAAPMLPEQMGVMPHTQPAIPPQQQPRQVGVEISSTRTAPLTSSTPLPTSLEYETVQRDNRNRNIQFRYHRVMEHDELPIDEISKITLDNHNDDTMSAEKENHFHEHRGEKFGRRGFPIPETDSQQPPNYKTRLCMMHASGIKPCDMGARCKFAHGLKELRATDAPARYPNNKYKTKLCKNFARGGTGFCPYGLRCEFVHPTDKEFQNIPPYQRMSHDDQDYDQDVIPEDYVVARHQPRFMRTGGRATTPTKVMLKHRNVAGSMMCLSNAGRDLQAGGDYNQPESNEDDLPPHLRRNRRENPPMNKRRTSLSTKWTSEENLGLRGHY

[8] = biological target: T3, RNA-binding protein pos-1 (Caenorhabditis elegans, UniProt G5EF15); experiment: inhibitors of POS-1/mex-3 RNA binding, dose response, biochemical, fluorescence polarization (AID 1964);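 also: purified POS-1 fused to maltose binding protein made in E. coli; potency of compounds blocking POS-1 binding to fluorescent RNA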
T3 sequence (G5EF15 whole entry): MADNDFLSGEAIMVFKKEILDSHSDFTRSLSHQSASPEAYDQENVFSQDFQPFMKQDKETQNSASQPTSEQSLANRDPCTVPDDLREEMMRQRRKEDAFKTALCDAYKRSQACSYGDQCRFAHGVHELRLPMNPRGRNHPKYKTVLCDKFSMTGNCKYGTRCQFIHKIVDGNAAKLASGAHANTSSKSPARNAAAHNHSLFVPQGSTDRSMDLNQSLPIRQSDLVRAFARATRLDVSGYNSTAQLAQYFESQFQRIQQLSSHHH

[9] = biological target: Heat shock protein HSP 90-alpha (Homo sapiens, UniProt P07900); type: functional, organism-based
[10] = inhibitors of Bluetongue virus cytopathic effect, confirmation, arbovirus, BSR cells (AID 1250); type: functional;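 also: protection from viral cytopathic effect measured as cell viability by ATP luminescence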
Estrogen receptor beta [11] = biological target: T4, Estrogen receptor beta (Homo sapiens, UniProt Q92731); experiment: ERβ–SRC-3 coactivator interaction inhibitors, confirmation, orthogonal assay, biochemical, ELISA, streptavidin-HRP readout (AID 1060)
Estrogen receptor beta [12] = biological target: T4, Estrogen receptor beta
Estrogen receptor = biological target: T5, Estrogen receptor (Homo sapiens, UniProt P03372);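 also: potency for inhibiting coactivator peptide recruitment to the receptor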
T5 sequence (P03372 whole entry): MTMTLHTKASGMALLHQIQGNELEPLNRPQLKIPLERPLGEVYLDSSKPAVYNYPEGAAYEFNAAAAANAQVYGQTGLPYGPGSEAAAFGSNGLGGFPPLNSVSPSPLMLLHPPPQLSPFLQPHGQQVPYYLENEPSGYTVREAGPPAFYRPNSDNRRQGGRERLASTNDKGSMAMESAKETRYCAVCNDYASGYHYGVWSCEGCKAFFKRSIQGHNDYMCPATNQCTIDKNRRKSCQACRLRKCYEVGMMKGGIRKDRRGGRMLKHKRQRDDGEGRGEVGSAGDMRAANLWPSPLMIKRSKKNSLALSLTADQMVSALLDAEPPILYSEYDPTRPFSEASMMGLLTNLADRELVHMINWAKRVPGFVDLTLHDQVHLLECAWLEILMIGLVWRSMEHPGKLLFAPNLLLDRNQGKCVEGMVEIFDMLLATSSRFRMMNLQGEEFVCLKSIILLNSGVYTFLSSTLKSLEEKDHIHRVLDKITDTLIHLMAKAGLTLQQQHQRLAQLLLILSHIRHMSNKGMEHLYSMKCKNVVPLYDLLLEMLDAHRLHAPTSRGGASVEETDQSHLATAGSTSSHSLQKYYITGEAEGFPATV

T4 sequence (Q92731 whole entry): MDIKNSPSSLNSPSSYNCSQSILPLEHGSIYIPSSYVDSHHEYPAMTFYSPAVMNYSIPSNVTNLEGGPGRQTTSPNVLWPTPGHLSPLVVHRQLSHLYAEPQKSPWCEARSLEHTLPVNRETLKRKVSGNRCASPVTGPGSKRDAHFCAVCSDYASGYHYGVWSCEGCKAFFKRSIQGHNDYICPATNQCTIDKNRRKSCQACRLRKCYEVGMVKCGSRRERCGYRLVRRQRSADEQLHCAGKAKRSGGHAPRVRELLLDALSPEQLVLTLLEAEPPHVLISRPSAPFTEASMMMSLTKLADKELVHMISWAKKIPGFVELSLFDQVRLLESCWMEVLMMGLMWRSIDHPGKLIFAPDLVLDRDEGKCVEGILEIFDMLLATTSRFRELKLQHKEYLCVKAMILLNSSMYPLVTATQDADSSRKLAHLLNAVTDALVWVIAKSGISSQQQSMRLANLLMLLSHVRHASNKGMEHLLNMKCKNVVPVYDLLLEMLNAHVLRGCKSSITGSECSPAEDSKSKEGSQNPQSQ
Chain of Oxytocin receptor (P30559 whole entry): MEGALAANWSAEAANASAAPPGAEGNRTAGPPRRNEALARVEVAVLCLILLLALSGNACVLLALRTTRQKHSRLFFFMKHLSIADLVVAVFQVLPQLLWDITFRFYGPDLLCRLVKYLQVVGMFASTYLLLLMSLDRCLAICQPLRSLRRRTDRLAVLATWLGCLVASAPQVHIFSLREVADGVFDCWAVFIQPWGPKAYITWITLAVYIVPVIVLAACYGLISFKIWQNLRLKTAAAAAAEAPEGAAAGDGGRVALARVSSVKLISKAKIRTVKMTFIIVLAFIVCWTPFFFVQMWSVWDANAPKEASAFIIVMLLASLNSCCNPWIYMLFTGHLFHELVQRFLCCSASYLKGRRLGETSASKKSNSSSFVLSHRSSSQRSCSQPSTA
Chain of Neuropeptide Y receptor type 2 (P49146 whole entry): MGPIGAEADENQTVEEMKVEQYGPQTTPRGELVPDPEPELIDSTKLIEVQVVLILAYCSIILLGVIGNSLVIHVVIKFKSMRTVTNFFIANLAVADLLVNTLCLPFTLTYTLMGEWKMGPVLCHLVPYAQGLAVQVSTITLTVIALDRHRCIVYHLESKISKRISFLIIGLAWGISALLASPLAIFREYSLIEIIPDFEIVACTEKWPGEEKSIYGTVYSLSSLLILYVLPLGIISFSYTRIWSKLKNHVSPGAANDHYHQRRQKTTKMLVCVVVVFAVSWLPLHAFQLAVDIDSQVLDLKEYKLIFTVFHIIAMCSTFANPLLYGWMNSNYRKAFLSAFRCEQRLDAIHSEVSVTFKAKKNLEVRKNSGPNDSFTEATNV
Chain of Calpain-2 catalytic subunit (P43367 whole entry): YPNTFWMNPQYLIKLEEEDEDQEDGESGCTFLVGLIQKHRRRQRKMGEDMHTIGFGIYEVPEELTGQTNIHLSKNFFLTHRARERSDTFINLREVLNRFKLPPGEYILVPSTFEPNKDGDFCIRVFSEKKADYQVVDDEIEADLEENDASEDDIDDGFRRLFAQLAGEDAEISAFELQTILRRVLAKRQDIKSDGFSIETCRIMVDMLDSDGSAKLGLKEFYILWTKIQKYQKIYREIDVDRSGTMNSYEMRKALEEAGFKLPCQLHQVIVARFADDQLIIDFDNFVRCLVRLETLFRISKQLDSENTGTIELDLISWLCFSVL
Chain of Vasopressin V1a receptor (P37288 whole entry): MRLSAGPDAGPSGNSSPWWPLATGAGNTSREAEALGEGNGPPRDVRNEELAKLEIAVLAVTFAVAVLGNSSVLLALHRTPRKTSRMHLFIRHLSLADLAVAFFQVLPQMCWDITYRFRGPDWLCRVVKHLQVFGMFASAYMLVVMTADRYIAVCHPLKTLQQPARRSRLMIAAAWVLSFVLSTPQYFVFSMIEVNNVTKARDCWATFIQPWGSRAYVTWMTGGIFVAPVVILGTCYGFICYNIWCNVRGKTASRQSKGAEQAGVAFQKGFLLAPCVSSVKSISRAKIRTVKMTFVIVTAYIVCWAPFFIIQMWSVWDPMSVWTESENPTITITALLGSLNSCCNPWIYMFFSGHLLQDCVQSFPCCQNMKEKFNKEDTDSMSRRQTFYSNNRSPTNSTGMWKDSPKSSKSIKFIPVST
Chain of Neuropeptide Y receptor type 1 (P25929 whole entry): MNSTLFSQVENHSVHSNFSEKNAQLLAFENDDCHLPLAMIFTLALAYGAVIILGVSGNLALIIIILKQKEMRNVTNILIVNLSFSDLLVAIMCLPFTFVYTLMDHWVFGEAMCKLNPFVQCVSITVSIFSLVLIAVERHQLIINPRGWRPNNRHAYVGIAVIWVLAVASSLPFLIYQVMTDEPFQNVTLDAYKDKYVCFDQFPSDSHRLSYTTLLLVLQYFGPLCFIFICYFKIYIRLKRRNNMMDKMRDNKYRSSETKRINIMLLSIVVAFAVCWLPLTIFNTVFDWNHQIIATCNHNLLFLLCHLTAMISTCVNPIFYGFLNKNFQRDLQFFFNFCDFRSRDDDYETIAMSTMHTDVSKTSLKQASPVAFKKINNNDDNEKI
Chain of NADPH oxidase 1 (Q9Y5S8 whole entry): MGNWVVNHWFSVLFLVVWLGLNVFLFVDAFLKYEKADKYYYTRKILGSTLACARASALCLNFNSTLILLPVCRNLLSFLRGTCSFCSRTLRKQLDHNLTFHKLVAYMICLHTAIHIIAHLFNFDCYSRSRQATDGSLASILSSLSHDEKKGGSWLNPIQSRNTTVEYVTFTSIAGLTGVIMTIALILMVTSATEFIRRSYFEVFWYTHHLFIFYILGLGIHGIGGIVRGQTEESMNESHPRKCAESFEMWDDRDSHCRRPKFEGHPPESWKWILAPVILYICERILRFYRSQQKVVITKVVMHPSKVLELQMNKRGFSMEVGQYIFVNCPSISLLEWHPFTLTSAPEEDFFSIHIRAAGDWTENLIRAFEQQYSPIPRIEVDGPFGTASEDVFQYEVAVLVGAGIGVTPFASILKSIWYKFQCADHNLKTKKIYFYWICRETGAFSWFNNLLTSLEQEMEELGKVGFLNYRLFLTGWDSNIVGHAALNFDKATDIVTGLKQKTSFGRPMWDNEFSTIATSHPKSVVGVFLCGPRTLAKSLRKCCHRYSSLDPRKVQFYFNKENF

In the case of `Cc1ccccc1N1CCN(CCCOc2ccc3c(C)cc(=O)oc3c2)CC1`, the EC50 [1] is reported as 9.32 µM (active), the EC50 [2] is reported as 0.124 µM (active) and the IC50 [3] is reported as > 35 µM (not active). The IC50 [4] was > 35 µM (not active).

In the case of `COc1ccc(/C=N/Nc2c(Cl)cncc2Cl)c(OC)c1OC`, the IC50 (NADPH oxidase 1) is reported as > 17 µM (not active).

For `C=CCNC(=S)N/N=C/c1cccc([N+](=O)[O-])c1`, the IC50 [5] was 6.63 µM (active).

With `CCN(CC)c1ccc2cc(C(N)=O)/c(=N\NC(=O)c3ccncc3)oc2c1` the EC50 (Vasopressin V1a receptor) was 18.6 µM (not active) and the EC50 (Oxytocin receptor) was 21.8 µM (not active).

With `Cc1cc(/C=c2\sc3nc4ccccc4n3c2=O)c(C)n1-c1ccc(C(=O)O)cc1` the IC50 [6] was 171 µM (active), the EC50 [7] was > 300 µM (not active) and the EC50 [8] was > 300 µM (not active). The AC50 [9] was 24.5 µM (active) and the IC50 [10] was 25.8 µM (active).

In the case of `Cc1ccc(OCc2ccoc2C(=O)O)cc1C`, the IC50 (Estrogen receptor beta [11]) is reported as < 0.023 µM (not active), the IC50 (Estrogen receptor beta [12]) is reported as 5.86 µM (active) and the IC50 (Estrogen receptor) is reported as 25.4 µM (active).
